Data: paper PMC10587169, “Tuning aminopolycarboxylate chelators for efficient complexation of trivalent actinides” (Scientific Reports, 2023)
Like-named read-outs stand apart in the source and are kept apart here.

Columns and labels:
[1] = cited from earlier work
[2] = Spectrophotometric titration; type: binding; conditions: I = 2.0 M (Na+/H+)ClO4 at 20.0 °C, not marked potentiometry (spectrophotometric titration)

Row | Compound | pKa H2L2- ([1]; I = 0.15 M NaCl at 25 °C) | pKa H3L- ([1]; I = 0.15 M NaCl at 25 °C) | pKa H4L(aq) ([1]; I = 0.15 M NaCl at 25 °C) | pKa H5L+ ([1]; I = 0.15 M NaCl at 25 °C) | pKa HL3- ([1]; I = 0.15 M NaCl at 25 °C) | pKa H2L2- ([1]; I = 0.16 M NaCl at 25 °C) | pKa H3L- ([1]; I = 0.16 M NaCl at 25 °C) | pKa H4L(aq) ([1]; I = 0.16 M NaCl at 25 °C) | pKa H5L+ ([1]; I = 0.16 M NaCl at 25 °C) | pKa H6L2+ ([1]; I = 0.16 M NaCl at 25 °C) | pKa H7L3+ ([1]; I = 0.16 M NaCl at 25 °C) | pKa HL3- ([1]; I = 0.16 M NaCl at 25 °C) | logβ121 (MH2L), Nd3+ [2]
1 | O=C(O)CN(CCN(CC(=O)O)Cc1cccc(C(=O)O)n1)Cc1cccc(C(=O)O)n1 [H4octapa, 6,6′-((ethane-1,2-diylbis–((carboxymethyl)azanediyl))bis–(methylene))dipicolinic acid] | 5.40 (1) | 3.65 (1) | 2.97 (1) | 1.66 (1) | 8.52 (1) | 5.43 (2) | 3.75 (1) | 3.08 (1) | 2.21 (2) | 1.61 (2) | 0.12 (4) | 8.58 (1) | 
2 | O=C(O)CN(CCN(CCN(CC(=O)O)CC(=O)O)CC(=O)O)CCN(CC(=O)O)CC(=O)O [H6ttha, triethylenetetraamine-N,N,N',N'',N''',N'''-hexaacetic acid] |  |  |  |  |  |  |  |  |  |  |  |  | 27.7(1)
